Results taken from patent publication US12643882B2, “Inhibitors of human respiratory syncytial virus and metapneumovirus” (priority 2022, dated 2026).
Read-outs that look alike come from different tables or passages of the source.

How the values were obtained:
RSV-A2-GFP virus = assay: microbe, parasite or virus in culture; assay type: cell-based, Human Respiratory Syncytial Virus
Experimental: To set up the assay, ARF vials were thawed in a 37° C. water bath and a control compound was resuspended in assay media DMEM (Dulbecco's Modified Eagle Medium) containing 2% FBS, 100 U/ml Penicillin-Streptomycin.
GFP sequence was derived from pJTI™ R4 Dest CMV N-EmGFP pA Vector (Invitrogen) and was cloned into the intergenic sequence between wild-type RSV-A2 P and M genes using standard recombineering techniques. Recombinant RSV-A2-GFP was propagated in Hep2 cells (human cells contain HeLa marker chromosomes and were derived via HeLa contamination, ATCC CCL-23) with a Multiplicity of Infection (MOI) of 0.1. Virus was harvested 3 days after infection by collecting all culture material and then freeze-thawing the mixture for 5 min. Working virus stocks were generated by thawing frozen viral cultures in 37° C. water bath, which were centrifuged at 218 g for 15 min at 4° C. 1/10 of 10×SPG (Biological Industries 06-3061-01-5A) were added and then mixed. The supernatant was aliquoted, frozen in liquid nitrogen, and then transferred to a −80° C. freezer for storage. Virus titer was determined by automated plaque assay in HEp-2 cells following methods described previously (Wen Z. et al.; 2019).
Calu-1 cells were purchased from ATCC (Cat #HTB-54) and were expanded in growth media (DMEM containing 10% FBS, 100 U/ml Penicillin-Streptomycin). To make ARF, cell culture media was removed and discarded and the cell layer was briefly rinsed with PBS to remove serum. 2.5 mL of TrypLE Express solution were added and cells incubated until dislodged, to which growth media was added and the cells were resuspended by gentle pipetting. Cells were counted for concentration and viability as determined by ViCell. Cells were centrifuged at RT, 300 g for 5 minutes to pellet cells. The supernatant was gently aspirated and the pellet was flicked to loosen cells. Cells were resuspended in an appropriate volume of freezing medium (DMEM containing 10% DMSO, 10% FBS, 100 U/ml Penicillin-Streptomycin) to achieve a concentration of 5×10^6 cells/mL. 1 mL aliquots of the cell suspension were transferred to freezing vials. The vials were put into an upright container in a −80° C. freezer overnight before transferring vials to liquid nitrogen for storage.
Assay ready freezedown (ARF, generation described separately) Calu-1 cells (ATCC HTB-54) were used. Compound plates were prepared by dispensing compounds dissolved in DMSO into the wells of a 384 well Corning® 3985 plate with an ECHO acoustic dispenser and compounds were tested in 10-point serial 3-fold dilution. […] To set up the assay, ARF vial(s) were thawed in a 37° C. water bath and were then resuspended into assay media (DMEM containing 2% FBS, 100 U/ml Penicillin-Streptomycin). Cells were counted using default parameters on ViCell and diluted to 20,000 cells/mL in assay media. RSV-A2-GFP virus was added to cells at 24,000 pfu/ml (MOI=1.2) and mixed by gentle inversion. 10 μL/well of 100% DMSO was dispensed as CellTiter-Glo (CTG) assay Max_E controls wells. The cells were dispensed at 50 μL/well using Bravo with 50 μL filtered tips into compound plates. Plates were covered with MicroClime lids, loaded with 7.5 mL of assay media to minimize evaporation, and were incubated at 37° C. and 5% CO2 for 96 hrs. Following incubation, distinct, GFP-expressing cells were counted using an Acumen imaging system with appropriate settings. A same-well CTG assay was performed by adding 10 μL/well reconstituted CellTiter-Glo reagent (Promega G7573) and plates were read on PerkinElmer Envision according to manufacturer's instructions. Raw data were loaded and analyzed in ActivityBase. Antiviral IC50 and cytotoxicity CC50 values were determined using a 4 parameter logistic fit based on the Levenberg-Marquardt algorithm. Model: 205-4 Parameter Logistic.

hMPV-GFP virus = assay: microbe, parasite or virus in culture; assay type: cell-based, human metapneumovirus
Experimental: GFP expressing rgHMPV #3 p3 was generated in Dr. Buchholz's lab (Biacchesi S. et al., J Virol. 2007 June; 81(11): 6057-6067) and propagated in VERO cells (ATCC Cat #CCL-81) with a Multiplicity of Infection (MOI) of 0.1. Virus was harvested 4 days after infection by collecting cultured material and was freeze-thaw cycled in liquid nitrogen twice. Working virus stocks were generated from thawing frozen samples in 37° C. water bath, which were centrifuged at 218 g for 15 min at 4° C. 1/10 of 10×SPG (Biological Industries 06-3061-01-5A) were added and then mixed. The supernatant was aliquoted, frozen in liquid nitrogen, and then transferred to a −80° C. freezer for storage. Virus titer was determined by performing titration test in 96-well plates and calculate approximate virus titer using GFP event/well data.
Compound plates were prepared by dispensing compounds dissolved in DMSO into wells of a 384 well Corning 3985 polystyrene flat clear bottom optical imaging microplate (202.5 nL/well) using an ECHO acoustic dispenser. Each compound was tested in 10-point serial 3-fold dilution (typical final concentrations: 40,300 nM-2 nM). […] Continuous culture of VERO cells was maintained in complete culture media (OptiMEM supplemented with 2 mM GlutaMAX™ and 100 U/ml Penicillin-Streptomycin). To set up the assay, VERO cells were trypsinized with 0.25% Trypsin-EDTA until cells were dislodged, then cells were re-suspended with 1 mL FBS. Cells were spun down at 300 g for 5 minutes and cells were washed twice with culture media and counted using default parameters on ViCell. Cells were then diluted to 100,000 cells/mL (5,000 cells/50 μL) in complete culture media+TrypLE Select (80 μL/mL). hMPV-GFP virus was added to cells at 125,000 pfu/mL (MOI=1.25) and were mixed by gentle inversion. 10 μL/well of 100% DMSO was dispensed to CellTiter-Glo (CTG) assay Max_E controls wells. Cells were dispensed at 50 μL/well using Bravo and 50 μL filtered tips into compound plates. Plates were covered with MicroClime lids and loaded with 7.5 mL of assay media to minimize evaporation. Plates were lightly shaken for 10 minutes at room temperature and then incubated at 37° C. and 5% CO2 for 48 hrs. Following incubation, distinct GFP-expressing cells were counted using an Acumen imaging system with appropriate settings. A same-well CTG assay was performed by adding 10 μL/well reconstituted CellTiter-Glo reagent (Promega G7573) and plates were read on PerkinElmer Envision according to manufacturer's instructions. Raw data were loaded and analyzed in ActivityBase. Antiviral IC50 and cytotoxicity CC50 values were determined using a 4 parameter logistic fit based on the Levenberg-Marquardt algorithm. Model: 205-4 Parameter Logistic. • References: Wen Z, Citron M, Bett A J, Espeseth A S, Vora K A, Zhang L, DiStefano D J. Development and application of a higher throughput RSV plaque assay by immunofluorescent imaging. J Virol Methods. 2019 January; 263:88-95. doi: 10.1016/j.jviromet.2018.10.022. Epub 2018 Oct. 28. PMD: 30381239. • Biacchesi S, Murphy B R, Collins P L, Buchholz U J. Frequent frameshift and point mutations in the SH gene of human metapneumovirus passaged in vitro. J Virol. 2007 June; 81(11):6057-67. doi: 10.1128/JVL.00128-07. Epub 2007 Mar. 21. PMID: 17376897; PMCID: MC 1900297. Assay Data

[1] = read-out: hMPV EC50, VERO cells infected with hMPV-GFP, 48 hrs, GFP-expressing cells counted
[2] = Calu-1 cells infected with RSV-A2-GFP, 96 hrs, GFP-expressing cells counted, read-out: RSV EC50
[3] = VERO cells infected with hMPV-GFP, 48 hrs, GFP-expressing cells counted, read-out: hMPV EC50
[4] = human respiratory syncytial virus, Calu-1, 96 h, read-out: RSV EC50, Calu-1 cells infected with RSV-A2-GFP, 96 hrs, GFP-expressing cells counted
[5] = human metapneumovirus, Vero, 48 h, read-out: hMPV EC50, VERO cells infected with hMPV-GFP, 48 hrs, GFP-expressing cells counted

Row | Compound | EC50 (RSV-A2-GFP virus; [2]) | EC50 (hMPV-GFP virus; [3]) | further results
1 | Cc1nn(-c2ncccn2)cc1C(=O)N1C[C@H]2[C@H](Oc3cc(C(C)(C)N)cc(-c4ccc(F)c(F)c4)n3)[C@@]2(C)C1 (single isomer, unassigned; enantiomer 2) [Example 106B] | – | – | EC50 (RSV-A2-GFP virus; read-out: RSV EC50, Calu-1 cells infected with RSV-A2-GFP, 96 hrs, GFP-expressing cells counted): < 10 nM; EC50 (hMPV-GFP virus; [1]): 10 to 100 nM
2 | Cc1nn(-c2ncccn2)cc1C(=O)N1C[C@@H]2[C@H](C1)[C@H]2Oc1cc(C(C)(C)N)cc(N2CCC(C(F)(F)F)CC2C)n1 (stereo partly drawn) [Example 129A, ent-((1R,5S,6s)-6-((4-(2-aminopropan-2-yl)-6-(2-methyl-4-(trifluoromethyl)piperidin-1-yl)pyridin-2-yl)oxy)-3-azabicyclo[3.1.0]hexan-3-yl)(3-methyl-1-(pyrimidin-2-yl)-1H-pyrazol-4-yl)methanone] | < 10 nM | > 100 nM | –
3 | CC(C)(N)c1cc(O[C@H]2[C@@H]3CN(C(=O)c4cn(-c5ncccn5)nc4C(F)F)C[C@@H]32)nc(-c2ccc(F)cc2)c1 [Example 66, ((1R,5S,6s)-6-((4-(2-aminopropan-2-yl)-6-(4-fluorophenyl)pyridin-2-yl)oxy)-3-azabicyclo[3.1.0]hexan-3-yl)(3-(difluoromethyl)-1-(pyrimidin-2-yl)-1H-pyrazol-4-yl)methanone] | < 10 nM | > 100 nM | –
4 | Cc1nc(-c2ncccn2)sc1C(=O)N1C[C@@H]2[C@H](C1)[C@H]2Oc1cc(-c2ccc(F)cc2)nc(C(C)(C)N)c1 [Example 114, ((1R,5S,6s)-6-((2-(2-aminopropan-2-yl)-6-(4-fluorophenyl)pyridin-4-yl)oxy)-3-azabicyclo[3.1.0]hexan-3-yl)(4-methyl-2-(pyrimidin-2-yl)thiazol-5-yl)methanone] | – | – | EC50 (RSV-A2-GFP virus; [4]): < 10 nM; EC50 (hMPV-GFP virus; [5]): > 100 nM
5 | Cc1nc(-c2ncccn2)sc1C(=O)N1C[C@@H]2[C@H](C1)[C@H]2Oc1cc(C(C)(C)N)cc(N2CCC(C(F)(F)F)CC2)n1 [Example 125, ((1R,5S,6s)-6-((4-(2-aminopropan-2-yl)-6-(4-(trifluoromethyl)piperidin-1-yl)pyridin-2-yl)oxy)-3-azabicyclo[3.1.0]hexan-3-yl)(4-methyl-2-(pyrimidin-2-yl)thiazol-5-yl)methanone] | < 10 nM | > 100 nM | –
6 | Cn1nc(-c2ncccn2)cc1C(=O)N1C[C@H]2[C@H](Oc3cc(C(C)(C)N)cc(-c4ccc(C(F)(F)F)cc4)n3)[C@@]2(C)C1 (single isomer, unassigned; enantiomer 1) [Example 110A] | – | – | EC50 (RSV-A2-GFP virus; [4]): < 10 nM; EC50 (hMPV-GFP virus; [1]): 10 to 100 nM
7 | Cc1nn(-c2ncccn2)cc1C(=O)N1C[C@@H]2[C@H](C1)[C@H]2Oc1cc(C(C)(C)N)cc(-c2ccc(C(F)(F)F)nc2)n1 [Example 87, ((1R,5S,6s)-6-((4-(2-aminopropan-2-yl)-6′-(trifluoromethyl)-[2,3′-bipyridin]-6-yl)oxy)-3-azabicyclo[3.1.0]hexan-3-yl)(3-methyl-1-(pyrimidin-2-yl)-1H-pyrazol-4-yl)methanone] | < 10 nM | > 100 nM | –
8 | Cn1nc(-c2ncccn2)cc1C(=O)N1C[C@H]2[C@H](Oc3cc(C(C)(C)N)cc(-c4ccc(F)cc4F)n3)[C@@]2(C)C1 (single isomer, unassigned; enantiomer 1) [Example 108A] | – | – | EC50 (RSV-A2-GFP virus; [4]): < 10 nM; EC50 (hMPV-GFP virus; [5]): > 100 nM
9 | Cc1nn(-c2ncccn2)cc1C(=O)N1C[C@@H]2[C@H](C1)[C@H]2Oc1cc(C(C)(C)N)cc(N2CCC(C)(C)CC2C)n1 (stereo partly drawn) [Example 127A, ent-((1R,5S,6s)-6-((4-(2-aminopropan-2-yl)-6-(2,4,4-trimethylpiperidin-1-yl)pyridin-2-yl)oxy)-3-azabicyclo[3.1.0]hexan-3-yl)(3-methyl-1-(pyrimidin-2-yl)-1H-pyrazol-4-yl)methanone] | < 10 nM | > 100 nM | –
10 | Cc1nn(-c2ccccc2)cc1C(=O)N1C[C@@H]2[C@H](C1)[C@H]2Oc1cc(C(C)(C)N)cc(-c2ccc(F)cc2)n1 [Example 74, ((1R,5S,6s)-6-((4-(2-aminopropan-2-yl)-6-(4-fluorophenyl)pyridin-2-yl)oxy)-3-azabicyclo[3.1.0]hexan-3-yl)(3-methyl-1-phenyl-1H-pyrazol-4-yl)methanone] | < 10 nM | – | –
11 | Cc1ccc(-c2cc(C(C)(C)N)cc(O[C@H]3[C@@H]4CN(C(=O)c5sc(-c6ncccn6)nc5C)C[C@@H]43)n2)cc1 [Example 21, ((1R,5S,6s)-6-((4-(2-aminopropan-2-yl)-6-(p-tolyl)pyridin-2-yl)oxy)-3-azabicyclo[3.1.0]hexan-3-yl)(4-methyl-2-(pyrimidin-2-yl)thiazol-5-yl)methanone] | < 10 nM | – | –
12 | Cc1nc(-c2ncccn2)sc1C(=O)N1C[C@@H]2[C@H](C1)[C@H]2Oc1cc(C(C)(C)N)cc(-c2ccc(F)c(F)c2)n1 [Example 15, ((1R,5S,6s)-6-((4-(2-aminopropan-2-yl)-6-(3,4-difluorophenyl)pyridin-2-yl)oxy)-3-azabicyclo[3.1.0]hexan-3-yl)(4-methyl-2-(pyrimidin-2-yl)thiazol-5-yl)methanone] | < 10 nM | – | –
